According to patent US6136823A, “Pyridonecarboxylic acid derivatives or salts thereof and drugs containing the same as the active ingredient” (Wakunaga Pharmaceutical Co., Ltd., priority 1996, dated 2000):
Converted amounts (≈) assume the structure as drawn. Read-outs that look alike come from different tables or passages of the source.

What was measured:
[1] = system: S. aureus 209P; test: Antibacterial action, MIC against standard strain S. aureus 209P (standard method of the Japan Chemotherapeutic Association); assay type: cell-based; settings: Staphylococcus aureus, read-out: MIC S.a.
Description: (§1) The minimum inhibitory concentrations (MIC; μg/ml) of specimen compounds against standard strains [S. aureus 209P (S.a.), S. epidermidis IFO 12293 (S.e.) and P. aeruginosa IFO 3445 (P.a.)] were determined in accordance with the standard method (CHEMOTHERAPY, 29(1), 76, 1981) prescribed by The Japan Chemotherapeutic Association.

[2] = system: S. epidermidis IFO 12293; test: Antibacterial action, MIC against standard strain S. epidermidis IFO 12293; assay type: cell-based; settings: Staphylococcus epidermidis
Description: as §1

[3] = system: P. aeruginosa IFO 3445; test: Antibacterial action, MIC against standard strain P. aeruginosa IFO 3445; assay type: cell-based; settings: Pseudomonas aeruginosa
Description: as §1

[4] = Urinary recovery rate upon oral administration to rats; assay type: in vivo, male SD rats; settings: urine, rat, 20 mg/kg or 10 mg/kg, paper disk method; for dose excreted at 6 h: 0-6 hours; for dose excreted at 24 h: 6-24 hours
Description: (§2) The recovery rates in both urine and bile of compounds according to the present invention upon oral administration to rats were determined to evaluate their absorbability and excretory behavior. (a) Urinary Recovery Rate Male SD rats aged 6 weeks fasted overnight were forced to orally administer a 0.5% methyl cellulose suspension (20 mg/10 ml/kg or 10 mg/10 ml/kg) of each of specimen compounds using a peroral sound. Urine was collected twice in the course of from 0 up to 6 hours and from 6 up to 24 hours after the administration. The concentration of the specimen compound in the urine was determined by a paper disk method using Bacillus subtilis ATCC 6633 as a tester strain to find its recovery rate in urine.

[5] = Biliary recovery rate upon oral administration to rats; assay type: in vivo, male SD rats; settings: bile, rat, 20 mg/kg or 10 mg/kg, 0-24 hours, after hydrolysis with the alkali
Description: (§3) The recovery rates in both urine and bile of compounds according to the present invention upon oral administration to rats were determined to evaluate their absorbability and excretory behavior.
(2) Biliary Recovery Rate
(§4) A polyethylene tube was inserted into the common bile ducts of male SD rats aged 6 weeks fasted overnight under etherization. After the anesthetic wore away, the rats were forced to orally administer each of the specimen compounds in the same manner as in the item (a) to collect bile till 24 hours after the administration. The concentration of the specimen compound in the bile was determined in the same manner as in the item (a) after hydrolysis with an alkali (0.1N, NaOH, 37° C., 1 hour) or without being subjected to any treatment, thereby finding its recovery rate in bile.

[6] = Total recovery rate in urine and bile upon oral administration to rats; assay type: in vivo, male SD rats; settings: rat, 20 mg/kg or 10 mg/kg, urine plus bile, 0-24 hours
Description: as §3
as §2, with “Male” for “The recovery rates in both urine and bile of compounds according to the present invention upon oral administration to rats were determined to evaluate their absorbability and excretory behavior. (a) Urinary Recovery Rate Male”
as §4

[7] = IFO12293, S. epidermidis IFO 12293, read-out: MIC S.e.
[8] = IFO3445, P. aeruginosa IFO 3445, read-out: MIC P.a.

| SMILES | MIC ([1]; 209P) | MIC ([2]; IFO12293, read-out: MIC S.e.) | MIC ([3]; IFO3445, read-out: MIC P.a.) | MIC ([1]; S. aureus 209P) | MIC [2, 7] | MIC [3, 8] | dose excreted at 6 h [4] | dose excreted at 24 h [4] | dose excreted at 24 h [5] | dose excreted at 24 h [6] |
| --- | --- | --- | --- | --- | --- | --- | --- | --- | --- | --- |
| O=C(O)c1cn(C2CC2)c2cc(N3CCNCC3)c(F)cc2c1=O [Cyprofloxacin, reference compound] | 0.1 µg/mL (≈ 0.302 µM) | 0.78 µg/mL (≈ 2.35 µM) | 0.39 µg/mL (≈ 1.18 µM) | – | – | – | – | – | – | – |
| Nc1cc(-n2cc(C(=O)O)c(=O)c3cc(F)c(N)c(Cl)c32)c(F)cc1F [Example 11, 7-Amino-1-(5-amino-2,4-difluorophenyl)-8-chloro-6-fluoro-4-oxo-1,4-dihydroquinoline-3-carboxylic Acid] | – | – | – | 0.013 µg/mL (≈ 0.0339 µM) | 0.05 µg/mL (≈ 0.13 µM) | 0.2 µg/mL (≈ 0.521 µM) | 9.7% | 13.7% | 90% | 113% |
| Cc1c(N)c(F)cc2c(=O)c(C(=O)O)cn(-c3cc(N)c(F)cc3F)c12 [Example 12, 7-Amino-1-(5-amino-2,4-difluorophenyl)-6-fluoro-8-methyl-4-oxo-1,4-dihydroquinoline-3-carboxylic Acid] | – | – | – | 0.013 µg/mL (≈ 0.0358 µM) | 0.05 µg/mL (≈ 0.138 µM) | 0.1 µg/mL (≈ 0.275 µM) | 4.8% | 10.8% | 81.7% | 97.3% |
| CNc1c(F)cc2c(=O)c(C(=O)O)cn(-c3cc(N)c(F)cc3F)c2c1Cl [Example 14, 1-(5-Amino-2,4-difluorophenyl)-8-chloro-6-fluoro-7-methylamino-4-oxo-1,4-dihydroquinoline-3-carboxylic Acid] | – | – | – | 0.013 µg/mL (≈ 0.0327 µM) | 0.025 µg/mL (≈ 0.0629 µM) | 0.2 µg/mL (≈ 0.503 µM) | 1.2% | 2.6% | 103% | 107% |
| CNc1c(F)cc2c(=O)c(C(=O)O)cn(-c3cc(N)c(F)cc3F)c2c1C [Example 16, 1-(5-Amino-2,4-difluorophenyl)-6-fluoro-8-methyl-7-methylamino-4-oxo-1,4-dihydroquinoline-3-carboxylic Acid] | – | – | – | 0.013 µg/mL (≈ 0.0345 µM) | 0.05 µg/mL (≈ 0.133 µM) | 0.39 µg/mL (≈ 1.03 µM) | – | – | – | – |
| CNc1c(F)cc2c(=O)c(C(=O)O)cn(-c3cc(N)c(F)cc3Cl)c2c1Cl [Example 19, 1-(5-Amino-2-chloro-4-fluorophenyl)-8-chloro-6-fluoro-7-methylamino-4-oxo-1,4-dihydroquinoline-3-carboxylic Acid] | – | – | – | 0.013 µg/mL (≈ 0.0314 µM) | 0.05 µg/mL (≈ 0.121 µM) | 0.39 µg/mL (≈ 0.942 µM) | – | – | – | – |
| CNc1c(F)cc2c(=O)c(C(=O)O)cn(-c3nc(N)c(F)cc3F)c2c1Cl [Example 28, 1-(6-Amino-3,5-difluoropyridin-2-yl)-8-chloro-6-fluoro-7-methylamino-4-oxo-1,4-dihydroquinoline-3-carboxylic Acid] | – | – | – | 0.006 µg/mL (≈ 0.015 µM) | 0.025 µg/mL (≈ 0.0627 µM) | 0.39 µg/mL (≈ 0.978 µM) | – | – | – | – |
| CNc1c(F)cc2c(=O)c(C(=O)O)cn(-c3nc(N)c(F)cc3F)c2c1Br [Example 30, 1-(6-Amino-3,5-difluoropyridin-2-yl)-8-bromo-6-fluoro-7-methylamino-4-oxo-1,4-dihydroquinoline-3-carboxylic Acid] | – | – | – | 0.006 µg/mL (≈ 0.0135 µM) | 0.025 µg/mL (≈ 0.0564 µM) | 0.78 µg/mL (≈ 1.76 µM) | – | – | – | – |
| CNc1c(F)c(C)c2c(=O)c(C(=O)O)cn(-c3cc(N)c(F)cc3F)c2c1Cl [Example 56, 1-(5-Amino-2,4-difluorophenyl)-8-chloro-6-fluoro-5-methyl-7-methylamino-4-oxo-1,4-dihydroquinoline-3-carboxylic Acid] | – | – | – | 0.006 µg/mL (≈ 0.0146 µM) | 0.013 µg/mL (≈ 0.0316 µM) | 0.2 µg/mL (≈ 0.486 µM) | – | – | – | – |
| CNc1c(F)c(C)c2c(=O)c(C(=O)O)cn(-c3cc(N)c(F)cc3F)c2c1C [Example 59, 1-(5-Amino-2,4-difluorophenyl)-6-fluoro-5,8-dimethyl-7-methylamino-4-oxo-1,4-dihydroquinoline-3-carboxylic Acid] | – | – | – | 0.006 µg/mL (≈ 0.0153 µM) | 0.013 µg/mL (≈ 0.0332 µM) | 0.39 µg/mL (≈ 0.997 µM) | – | – | – | – |
| CNc1c(F)c(N)c2c(=O)c(C(=O)O)cn(-c3cc(N)c(F)cc3F)c2c1Cl [Example 70, 5-Amino-1-(5-amino-2,4-difluorophenyl)-8-chloro-6-fluoro-7-methylamino-4-oxo-1,4-dihydroquinoline-3-carboxylic Acid] | – | – | – | 0.013 µg/mL (≈ 0.0315 µM) | 0.025 µg/mL (≈ 0.0606 µM) | 0.2 µg/mL (≈ 0.485 µM) | – | – | – | – |
| C=CCNc1c(F)cc2c(=O)c(C(=O)O)cn(-c3nc(N)c(F)cc3F)c2c1Cl [Example 77, 7-Allylamino-1-(6-amino-3,5-difluoropyridin-2-yl)-8-chloro-6-fluoro-4-oxo-1,4-dihydroquinoline-3-carboxylic Acid] | – | – | – | 0.013 µg/mL (≈ 0.0306 µM) | 0.013 µg/mL (≈ 0.0306 µM) | 0.39 µg/mL (≈ 0.918 µM) | – | – | – | – |
| Cc1c(NCCCO)c(F)cc2c(=O)c(C(=O)O)cn(-c3cc(N)c(F)cc3F)c12 [Example 88, 1-(5-Amino-2,4-difluorophenyl)-8-methyl-6-fluoro-7-(3-hydroxy-n-propylamino)-4-oxo-1,4-dihydroquinoline-3-carboxylic Acid] | – | – | – | 0.013 µg/mL (≈ 0.0309 µM) | 0.025 µg/mL (≈ 0.0593 µM) | 0.78 µg/mL (≈ 1.85 µM) | – | – | – | – |
| CNc1c(F)c(O)c2c(=O)c(C(=O)O)cn(-c3cc(N)c(F)cc3F)c2c1C [Example 98, 1-(5-Amino-2,4-difluorophenyl)-6-fluoro-5-hydroxy-8-methyl-7-methylamino-4-oxo-1,4-dihydroquinoline-3-carboxylic Acid] | – | – | – | 0.013 µg/mL (≈ 0.0331 µM) | 0.013 µg/mL (≈ 0.0331 µM) | 0.39 µg/mL (≈ 0.992 µM) | – | – | – | – |
| COc1c(F)cc2c(=O)c(C(=O)O)cn(-c3cc(N)c(F)cc3F)c2c1C [Example 99, 1-(5-Amino-2,4-difluorophenyl)-6-fluoro-7-methoxy-8-methyl-4-oxo-1,4-dihydroquinoline-3-carboxylic Acid] | – | – | – | 0.013 µg/mL (≈ 0.0344 µM) | 0.05 µg/mL (≈ 0.132 µM) | 0.78 µg/mL (≈ 2.06 µM) | – | – | – | – |
| C[C@H]1COc2c(N3CCN(C)CC3)c(F)cc3c(=O)c(C(=O)O)cn1c23 [Levofloxacin, reference compound] | – | – | – | 0.2 µg/mL (≈ 0.553 µM) | 0.39 µg/mL (≈ 1.08 µM) | 0.78 µg/mL (≈ 2.16 µM) | 21.2% | 13.7% | 48.3% | 83.2% |
| Nc1cc(-n2cc(C(=O)O)c(=O)c3cc(F)c(N4CC(N)C4)c(Cl)c32)c(F)cc1F [Referential compound, 7(3-Aminoazetidin-1-yl)-1-(5-amino-2,4-difluoro-phenyl)-8-chloro-6-fluoo-4-oxo-1,4-dihydroquinoline-3-carboxylic acid, reference compound] | – | – | – | – | – | – | 7.6% | 2.7% | 11.1% | 21.5% |
| C[C@@H]1CN(c2c(F)c(N)c3c(=O)c(C(=O)O)cn(C4CC4)c3c2F)C[C@H](C)N1 [Sparfloxacin, reference compound] | – | – | – | 0.05 µg/mL (≈ 0.127 µM) | 0.2 µg/mL (≈ 0.51 µM) | 0.78 µg/mL (≈ 1.99 µM) | – | – | – | – |
| NC1CCN(c2nc3c(cc2F)c(=O)c(C(=O)O)cn3-c2ccc(F)cc2F)C1 (stereo not drawn) [Tosufloxacin, reference compound] | – | – | – | 0.05 µg/mL (≈ 0.124 µM) | 0.2 µg/mL (≈ 0.495 µM) | 0.39 µg/mL (≈ 0.965 µM) | 19% | 12.3% | 9.2% | 40.5% |
